Experimental data from US20250276996A1, “CATIONICALLY-ENFRAMED HIGH DENSITY AROMATIC PEPTIDES” (Research Foundation of the City University of New York, priority 2022, published 2025).
Entries after “also recorded” stand apart in the source; their conditions may differ. Non-standard residues stand in square brackets, D forms with d. No end group written: not given here.

What was measured:
ARPE-19 cells = assay: Mitochondrial potential in the presence of CCCP (TMRM); assay type: cell-based; settings: 10 μM of CCCP
Procedure: Effects of peptides on mitochondrial potential in the presence of Carbonyl cyanide m-chlorophenylhydrazone (CCCP): ARPE-19 cells (ATTC-CRL-2302) (5×10^4 cells) were seeded in 35 mm glass dishes in DMEM/F12 medium with 10% FBS for 24 hr. On the day of the experiment, cells were cultured in DMEM/F12 in the presence of different concentrations of biotin-HDAP2 for 60 min (FIG. 17B). Then, cells were incubated with 10 μM CCCP in the presence of 5 nM TMRM, 100 nM Mito View Green, and 10 μg/ml Hoechst 33342 for 15 min at 37° C. Fluorescent images were immediately obtained with a Nikon Eclipse 50i fluorescence microscope (60× objective) using FITC (Mito View Green), Texas Red (TMRM), and DAPI (Hoechst) filters. Images were collected from three independent experiments, using 4-6 random fields for each treatment group, and imaged and analyzed as described for NR.

[1] = test system: antimycin-induced scratching; assay: Topical antimycin-induced scratching; assay type: in vivo, C57BL/6J mice; settings: 100 μM topical with 200 μM antimycin
Procedure: However, antimycin-induced scratching in mice was […] by biotin-free HDAP2. Dermal administration of antimycin, a mitochondrial Complex III irreversible inhibitor, is known to induce ROS formation and oxidative stress in C fibers of sensory neurons, resulting in severe scratching in mice. Biotin-HDAP2 and biotin-free HDAP2 were tested to see if either can inhibit topical antimycin-induced itching in 12 months old C57BL/6J mice. […] Specifically, 200 μM of topical antimycin in methanol induced itching, which was monitored for 60 min. […] Error bars represent SEM (n=3) **P<0.001. Topical administration of 100 μM of biotin-free HDAP2 with antimycin increased scratching by 2.5 fold. Error bars represent SEM (n=3) ***P<0.0001.

MDBK cells = assay: Cell survival in serum-free media (AlamarBlue); assay type: cell-based, bovine; settings: 1 μM, 5 days serum starvation
Procedure: Serum starvation experiments: Biotin-HDAP2's ability to improve cell viability and function following serum starvation was assessed. For all experiments, MDBK cells were seeded in 35 mm cell culture dishes (5×10^4 cells) in DMEM medium with 10% FBS (Fetal Bovine Serum) for 24 hrs and then incubated in serum-free medium with or without biotin-HDAP2 (1 μM) for 5 days to induce cell death. For quantitative measurements, wells were washed to remove dead cells, and then stained with AlamarBlue for 60 min. Quantitative analysis of dye conversion was measured using a fluorescent plate reader (550 ex/580 em) and cell viability was expressed as folds change (increase or decrease) over scrum-starved untreated cells.
Effects of peptides on cell survival in serum-free media: Cell survival in serum starvation conditions was studied in the presence and absence of biotin-HDAP2 using MDBK cells. Cells were plated at a density of 1-2×10^5 cells/well in 96 well plates in DMEM/10% FBS media. The following day, cells were washed and the medium replaced with DMEM serum-free media in the presence or absence of different concentrations of biotin-HDAP2 and incubated for 5 days. Cell viability was assessed using the Resaruzin (Alamar blue) indicator dye. Quantitative analysis of dye conversion was measured using a fluorescent plate reader (ex/em=550/580 nm) and viability was expressed as fold increase over of untreated cells.

Row | Molecule | ΔΨm relative to control cells (ARPE-19 cells) [%] | increase of scratching [1] [fold] | effect on antimycin-induced scratching ([1]; 60 min) | AlamarBlue fluorescence / protection during serum starvation (MDBK cells)
1 | N#CC(C#N)=NNc1cccc(Cl)c1 [CCCP, carbonyl cyanide m-chlorophenylhydrazone, reference compound] | 20 |  |  | 
2 | [dR]FF[dR] [biotin-free HDAP2] |  | 2.5 | potentiated | did not increase AlamarBlue fluorescence; also recorded: does not protect cells during serum starvation
